From PubChem BioAssay (NCI)
Where “and” joins values, the source holds several entries; their conditions need not be identical. Equal entries are not always repeated.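 Each compound was tested at five concentrations against cells in 96-well plates for 48 hours. At the GI50, growth is halved. TGI: total growth inhibition.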

Experiments:
Test in all cases: NCI-60 cell line screen, 48 h
[1] = tested on: CAKI-1 renal
[2] = tested on: HCC-2998 colon
[3] = tested on: HOP-92 NSCLC
[4] = tested on: K-562 leukemia
[5] = tested on: KM12 colon
[6] = tested on: OVCAR-3 ovarian
[7] = tested on: SF-295 CNS
[8] = tested on: U251 CNS
[9] = tested on: NCI-H226 lung
[10] = tested on: MDA-MB-435

SMILES | TGI [1] [µM] | TGI [2] [µM] | TGI [3] [µM] | TGI [4] [µM] | TGI [5] [µM] | TGI [6] [µM] | TGI [7] [µM] | TGI [8] [µM] | TGI [9] [µM] | GI50 [3] | GI50 [7] [µM] | TGI [10] [µM]
Cc1nc2cc(Nc3ccccc3C(=O)O)ccc2s1 | > 100 | > 100 | > 100 | > 100 | > 100 | > 100 | > 100 | > 100 |  |  |  | 
NC(=O)CC(N=Cc1nc(-c2ccccc2)oc1O)C(=O)O (stereo not drawn) | > 100 | > 100 | > 100 | > 100 | > 100 | > 100 | > 100 | > 100 | > 100 |  |  | 
O=C(O)/C=C/c1c[nH]c(=O)[nH]c1=O | > 500 | > 500 | > 500 | > 500 | > 500 | > 500 | > 232 | > 500 | > 500 | > 500 µM and 76.3 µM | > 158 | 
NC(=S)N1N=C2c3ccccc3CC[C@H]2[C@@H]1c1ccc(Cl)cc1 |  | > 100 | 58.2 | 82.5 | > 100 | > 100 | > 100 | > 100 | 51.5 |  |  | 
CC(=O)c1ccc(NC(=O)C(=O)C(C#N)CC(C)(C)C=O)cc1 (stereo not drawn) | > 100 | > 100 | > 100 | > 100 | > 100 | > 100 | > 100 | > 100 | > 100 |  |  | 
C/C(=C/CC[C@]1(CO)CC[C@]2(C)[C@H](CC[C@@H]3[C@@]4(C)CC[C@H](OC5OC(CO)C(O)C(O)C5OC5OC(CO)C(O)C(O)C5O)C(C)(C)[C@@H]4CC[C@]32C)[C@H]1O)CO (stereo partly drawn) | > 100 |  | > 100 | > 100 | > 100 | > 100 | > 100 | > 100 | > 100 |  |  | > 100
C[C@@H]1CC(=O)C[C@@H]2CC[C@H]3[C@@H]4CC[C@H](OC(=O)c5cccc6cc7ccccc7nc56)[C@H]4CC[C@@H]3[C@H]21 | 33.7 |  | 48.1 | 38 | 31.5 | 29.8 | 77.6 | 19.8 | 63.7 |  |  | 35.1
O=c1[nH]cnc2c(COCCO)c[nH]c12 | > 100 |  | > 100 | > 100 | > 100 | > 100 | > 100 | > 100 | > 100 |  |  | 
Cn1cc(C(=O)c2ccccc2)cc(C(=O)c2ccccc2)c1=O | > 100 | > 100 | > 100 | > 100 | > 100 | > 100 | > 100 | > 100 | > 100 |  |  | 
CCOC(=O)C1(C#N)CC1 | > 100 | > 100 |  | > 100 | > 100 |  | > 100 | > 100 | > 100 |  |  | 
CC(C)(C)N/N=C(\C(=O)NC1=C(Cl)C(=O)c2ccccc2C1=O)C1C=CCS1(=O)=O (stereo not drawn) | 45.6 | 57.3 | 33 | > 100 | > 100 | 9.38 | 25.1 | > 100 | 27.9 |  |  | 
C/C(N=NS(=O)(=O)c1ccc([N+](=O)[O-])cc1)=C1\C=CC=CN1O | > 100 | > 100 | > 100 | > 100 | > 100 | > 100 | > 100 | > 100 |  |  |  | 
COc1ccc(NC(=O)CC(=O)n2nc(C)c(N=Nc3ccccc3C(=O)O)c2C)cc1 | > 100 | > 100 |  | > 100 | > 100 | > 100 | > 100 | > 100 |  |  |  | 
C[C@H](CCC1SC1(C)C)C1CCC2(C)C3=C(CC[C@]12C)[C@@]1(C)CC[C@H](O)C(C)(C)C1CC3 (stereo partly drawn) | > 100 | > 100 | > 100 | > 100 | > 100 | > 100 | > 100 |  | > 100 |  |  | 
C#CCN(Cc1ccc2nc(-c3ccccc3)c(N)nc2c1)c1cc(OC)c(OC)c(OC)c1 |  | > 100 |  | > 100 |  | 59 | 66 | > 100 | 52 |  |  | 
COc1cc(-c2c3c(cc4c2OCO4)[C@@H](Nc2ccc(-c4ccc(-c5ccc(N[C@@H]6c7cc8c(cc7C(c7cc(OC)c(O)c(OC)c7)[C@H]7C(=O)OC[C@H]67)OCO8)cc5)cc4)cc2)[C@H]2COC(=O)[C@@H]2C3)cc(OC)c1O (stereo partly drawn) | 8.8 |  | 29.4 |  | 4.63 | 4.85 | 3.82 | 10.1 | 6.31 |  |  | 3.86
COc1cc(C(C)O)c[n+](CCC2CNc3ccccc32)c1 (stereo not drawn) | > 100 | > 100 |  | > 100 | > 100 | > 100 | > 100 | > 100 | > 100 |  |  | 
COc1cc2c(cc1OC)C(=O)/C(=C/c1cc(C)cc(C)c1)C2 |  | 2.14 | > 100 | > 38 | 13.5 | 1.04 |  | > 81.8 | 0.617 |  |  | 
